Columns and labels:
[1] = system: acute hepatitis caused by alcohol (ethanol); test: Acute hepatitis caused by alcohol (ethanol), serum liver function indicators; type: in vivo; conditions: male Wistar rats, 100 mg/kg/day TY force fed, 50% ethanol
Procedure: Example 3. The effect of TY on the treatment of acute hepatitis caused by alcohol (ethanol). Nine male Wistar rats (200-250 g) were randomly divided into 3 groups, 3 Wistar rats in each group, they were: 1. Healthy control group: force fed with physiological saline (2.5 mg/kg) of the same volume as TY; 2. Negative control group (ethanol and physiological saline): force fed with physiological saline of the same volume as TY and force fed with 50% ethanol; 3. Experimental group (ethanol and 100 mg/kg/day of TY): force fed 100 mg/kg/day of TY and force fed with 50% ethanol. First, the drug solvent or TY was administered by force feeding once daily, and the first force feeding was defined as the first day. One hour after force feeding on the fourth day, Group 1 was given physiological saline (2.5 mg/kg), Groups 2-3 were given […] 50% ethanol (2.5 mg/kg), respectively. The rats were force fed with ethanol again 12 hours after the first force feeding, and fasted 12 hours after the second force feeding. After being fasted for 12 hours, all Wistar rats were sacrificed. Prior to being sacrificed, blood was collected from the heart and serum was separated for analysis of the biochemical function of the liver.

[2] = system: fatty acid disease induced by high fat feed; test: Hepatocellular injury and abnormalities of fatty acid disease induced by high fat feed, liver H&E staining; type: in vivo, C57BL/6 (B6) mice; conditions: male B6 mice, 100 mg/kg/day TY force fed, high fat feed (60% fat calorie) 18 weeks, FIG. 7
Procedure: Example 7. Hepatocellular injury and abnormalities of fatty acid disease induced by high fat feed were treated with TY. 15 male, 8-10 weeks old of C57BL/6 (B6) mice (20-22 g) were randomly divided into 3 groups, and 4-5 B6 mice in each group, they were: 1. Healthy control group: fed with normal feed (the percentage of fat calories 5-6%); 2. Negative control group: fed with high fat feed (the percentage of fat calorie 60%) and force fed with physiological saline; 3. Experimental group: animals were given the same high fat feed as the Negative control group and force fed with 100 mg/kg/day of TY (high fat feed and TY). 1 week before liver injury was induced by the high fat feed, the experimental samples began to be given daily, respectively, the drug solvent of the same volume as TY to Groups 1 and 2, and 100 mg/kg of TY daily to Group 3. After 1 week, Groups 2 and 3 began to be given high fat feed, and continuously to be force fed with the drug solvent of the same volume as TY and 100 mg/kg/day of TY for 18 weeks. The mice began to fast on the 18th week, and 12 hours after fasting, all B6 mice were sacrificed. After the mice were sacrificed, livers were collected and soaked in formalin, stained with H&E staining, and then observed and images taken with a microscope.

[3] = system: hepatocellular injury and abnormalities caused by alcohol (ethanol); test: Hepatocellular injury and abnormalities caused by alcohol (ethanol), liver H&E staining; type: in vivo; conditions: male Wistar rats, 100 mg/kg/day TY force fed, 50% ethanol, FIG. 4
Procedure: Example 4. Hepatocellular injury and abnormalities caused by alcohol (ethanol) were treated by TY. Nine male Wistar rats (200-250 g) were randomly divided into 3 groups, 3 Wistar rats in each group, they were: 1. Healthy control group: force fed with drug solvent of the same volume as TY and force fed with physiological saline (2.5 mg/kg); 2. Negative control group (ethanol and physiological saline): force fed with physiological saline of the same volume as TY and force fed with 50% ethanol; 3. Experimental group (Ethanol and 100 mg/kg/day of TY): force fed 100 mg/kg/day of TY and force fed with 50% ethanol. First, food solvent or TY was administered by force feeding once daily, and the first force feeding was defined as the first day. One hour after force feeding on the fourth day, Group 1 was given physiological saline (2.5 mg/kg), Groups 2-3 were given 50% ethanol injection (2.5 mg/kg), respectively. The rats were force fed with ethanol again 12 hours after the first force feeding, and fasted 12 hours after the second force feeding. After being fasted for 12 hours, all Wistar rats were sacrificed. After the rats were sacrificed, livers were collected and soaked in formalin, and stained with H&E staining, then observed and images taken with a microscope.

[4] = system: fatty acid liver disease caused by high fat feed; test: Chronic hepatitis of fatty acid liver disease caused by high fat feed, serum liver function indicators; type: in vivo, C57BL/6 (B6) mice; conditions: male B6 mice, 100 mg/kg/day TY force fed, high fat feed (60% fat calorie) 18 weeks
Procedure: Example 5. Chronic hepatitis of fatty acid liver disease caused by high fat feed was treated by TY. 15 male, 8-10 weeks old of C57BL/6 (B6) mice (20-22 g) were randomly divided into 3 groups, 4-5 B6 mice in each group, they were: 1. Healthy control group: fed with normal feed (the percentage of fat calories 5-6%); 2. Negative control group: fed with high fat feed (the percentage of fat calorie 60%) and physiological saline; 3. Experimental group: animals were given the same high fat feed as the Negative control group and force fed with 100 mg/kg/day of TY. 1 week before liver injury was induced by high fat feed, the experimental samples began to be given daily, respectively, drug solvent of the same volume as TY to Groups 1 and 2, and 100 mg/kg/daily of TY to Group 3. After 1 week, Groups 2 and 3 began to be given high fat feed, and continuously to be force fed with the drug solvent of the volume same as TY and 100 mg/kg/day of TY for 18 weeks. The mice began to fast on the 18th week, and 12 hours after fasting, all B6 mice were sacrificed. Prior to being sacrificed, blood was collected from the heart and serum was separated for analysis of the biochemical function of the liver.

[5] = system: hepatocellular injury and necrosis caused by carbon tetrachloride; test: Hepatocellular injury and necrosis caused by carbon tetrachloride, liver H&E staining; type: in vivo; conditions: male Wistar rats, 100 mg/kg/day TY force fed, 20% carbon tetrachloride/olive oil i.p., FIG. 2
Procedure: Example 2. Hepatocellular injury and necrosis caused by carbon tetrachloride were treated by TY. Nine male Wistar rats (200-250 g) were randomly divided into 3 groups, 3 Wistar rats in each group, they were: 1. Healthy control group: force fed with drug solvent of the same volume as TY and intraperitoneal injection of olive oil (2.5 mg/kg); 2. Negative control group (carbon tetrachloride and physiological saline): force fed with physiological saline and intraperitoneal injection of 20% carbon tetrachloride/olive oil of the same volume as TY; 3. Experimental group (carbon tetrachloride and 100 mg/kg/day of TY): force fed 100 mg/kg/day of TY and intraperitoneal injection of 20% carbon tetrachloride/olive oil. First, the physiological saline or TY was administered by force feeding once daily, and the first force feeding was defined as the first day. One hour after the force feeding on the fourth day, Group 1 was given intraperitoneal injection of olive oil (2.5 mg/kg), Groups 2-3 were given intraperitoneal injection of 20% carbon tetrachloride/olive oil (2.5 mg/kg), respectively. The rats were fasted 12 hours after injection, all Wistar rats were sacrificed 12 hours after fasting. After the rats were sacrificed, livers were collected and soaked in formalin, and stained with H&E staining, then observed and images were taken with a microscope.

[6] = system: acute hepatitis caused by carbon tetrachloride; test: Acute hepatitis caused by carbon tetrachloride, serum liver function indicators; type: in vivo; conditions: male Wistar rats, 100 mg/kg/day TY force fed, 20% carbon tetrachloride/olive oil i.p. on fourth day
Procedure: Example 1. The effect of TY for the treatment of acute hepatitis caused by carbon tetrachloride was tested. Nine male Wistar rats (200-250 g) were randomly divided into 3 groups, 3 Wistar rats in each group, they were: 1. Healthy control group: force fed with drug solvent and intraperitoneal injection of olive oil (2.5 mg/kg) of the same volume as TY; 2. Negative control group (carbon tetrachloride and physiological saline): force fed with physiological saline and intraperitoneal injection of 20% carbon tetrachloride/olive oil of the same volume as TY; 3. Experimental group (carbon tetrachloride and 100 mg/kg/day of TY): force fed 100 mg/kg/day of TY and intraperitoneal injection of 20% carbon tetrachloride/olive oil. First, the drug solvent or TY was administered by force feeding once daily and the first force feeding was defined as the first day. One hour after force feeding on the fourth day, Group 1 was given intraperitoneal injection of olive oil (2.5 mg/kg), Groups 2-3 were given intraperitoneal injection of 20% carbon tetrachloride/olive oil (2.5 mg/kg), fasted 12 hours after injection, all Wistar rats were sacrificed 12 hours after fasting. Prior to being sacrificed, blood was collected from the heart and serum was separated for analysis of the biochemical function of the liver.

[7] = system: fatty acid liver disease induced by high fat feed; test: Serum triglyceride level of mice with fatty acid liver disease induced by high fat feed; type: in vivo, C57BL/6 (B6) mice; conditions: male B6 mice, 100 mg/kg/day TY force fed, high fat feed (60% fat calorie) 18 weeks, FIG. 6
Description: Example 6. TY decreased serum triglyceride level of the mice with fatty acid liver disease induced by high fat feed. 15 male, 8-10 weeks old of C57BL/6 (B6) mice (20-22 g) were randomly divided into 3 groups, 4-5 B6 mice in each group, and they were: 1. Healthy control group: fed with normal feed (the percentage of fat calories 5-6%); 2. Negative control group: fed with high fat feed (the percentage of fat calorie 60%) and force fed with physiological saline (high fat feed and physiological saline); 3. Experimental group: animals were given the same high fat feed as the Negative control group and force fed with 100 mg/kg/day of TY (high fat feed and TY). 1 week before liver injury was induced by the high fat feed, the experimental samples began to be given daily, respectively, drug solvent of the same volume as TY to Groups 1 and 2, and 100 mg/kg of TY daily to Group 3. after 1 week, Groups 2 and 3 began to be given high fat feed, and continuously to be force fed with the drug solvent of the same volume as TY and 100 mg/kg/day of TY for 18 weeks. The mice began to fast on the 18th week, and 12 hours after fasting, all B6 mice were sacrificed. Prior to being sacrificed, blood was collected from the heart and serum was separated for analysis of the serum triglyceride level.

## C#CCCCCCCCCCCC[C@@H](O)C[C@@H](O)CO [TY, (2R,4R)-1,2,4-trihydroxy heptadec-16-yne]
[1]; FIG. 3A
  liver function indicator GOT/AST increased by ethanol: significantly decreased
[1]; FIG. 3B
  liver function indicator GPI/ALT increased by ethanol: significantly decreased
[2]
  liver injury and tissue abnormalities caused by the high fat feed (H&E staining): capable of reducing the liver injury and tissue abnormalities
[3]
  liver injury and tissue abnormalities caused by ethanol (H&E staining): capable of reducing the liver injury and tissue abnormalities
[4]; FIG. 5A
  liver function indicator GOT/AST increased by the high-fat feed: significantly decreased
[4]; FIG. 5B
  liver function indicator GPT/ALT increased by the high-fat feed: significantly decreased
[5]
  hepatocellular necrosis near the central vein caused by carbon tetrachloride (H&E staining): capable of effectively reducing hepatocellular necrosis near the central vein
[6]; FIG. 1A
  liver function indicator GOT/AST increased by carbon tetrachloride: significantly decreased
[6]; FIG. 1B
  liver function indicator GPI/ALT increased by carbon tetrachloride: significantly decreased
[7]
  serum triglyceride level increased by the high-fat diet: significantly decreased
